Data: US20070292465A1, “Eutectic biocide compositions and formulations” (Clariant International, Ltd., priority 2006, published 2007)

Tests used:
[1] = Physical properties at freezing temperatures and on thawing (Example 3); format: physicochemical
Description: The following samples were tested to observe their physical properties at freezing temperatures:
After blending, such as by the method above, for example, all samples were allowed to cool to room temperature (20° C.). All samples stayed liquid at room temperature, except for blend 5.
All samples were placed in a freezer overnight ([…]).
All samples were placed back in the same freezer at the same temperature for an additional 2 days. In the BCP sample, there was-no change.
All samples were left at room temperature to thaw overnight.

[2] = Brookfield viscosity, SC4-18 spindle, 100 rpm; format: physicochemical
Description: The procedure used a Brookfield viscometer.
The apparatus used was a Brookfield viscometer, Programmable DV-II+Viscometer and a SC4-18 spindle.
The samples were tested at 100 rpm and at a range of temperatures, as shown in Table 4—Viscosity Measurement Results below.
All measurements were made in centipoise. For reference purposes, the viscosity of water, at 25° C. is 0.89 centipoise, and the viscosity of ethylene glycol at 25° C. is about 16 centipoise.

[3] = 25° C., for reference purposes; cited from earlier work

Structure (SMILES)	physical state after overnight freezing ([1]; freezer overnight (23° C.))	physical state after extended freezing ([1]; same freezer, same temperature, additional 2 days)	viscosity ([2]; 10 ° C.)	viscosity ([2]; 40 ° C.) [centipoise]	viscosity (reference) [3]
Oc1ccc(Cl)cc1Cc1ccccc1 [BCP, o-benzyl p-chlorophenol]	frozen solid	no change	Crystalline	29.4	
OCCO [ethylene glycol]					about 16 centipoise
O [water]					0.89 centipoise
